Assays:
Rattus norvegicus [1] = assay: Analgesic activity in Wistar albino rat assessed as reaction time at 12.5 mg/kg, ip measured after 30 mins for 15 secs by hot plate method (reference value: 4.21 +/- 0.41 sec); format: functional
[2] = Antioxidant activity assessed as DPPH radical scavenging activity incubated for 20 mins by spectrophotometric method; format: functional
[3] = Selectivity index, ratio of IC50 for inhibition of ovine COX1 to IC50 for inhibition of recombinant human COX2
[4] = Cardiotoxicity in Sprague-Dawley rat assessed as heart rate at 50 mg/kg; format: toxicity, organism-based; details: in vivo
Rattus norvegicus [5] = assay: Analgesic activity in Wistar albino rat assessed as reaction time at 12.5 mg/kg, ip measured after 60 mins for 15 secs by hot plate method (reference value: 4.67 +/- 0.52 sec); format: functional
[6] = target: Prostaglandin G/H synthase 1 (Ovis aries) (UniProt P05979); assay: Inhibition of ovine COX1 assessed as reduction in PGF2alpha at 10 uM incubated for 2 mins using arachidonic acid as substrate by ELISA relative to control
Rattus norvegicus [7] = assay: Antiinflammatory activity in Sprague-Dawley rat model of carrageenan-induced thermal hyperalgesia assessed as paw withdrawal latency time at 50 mg/kg, po administered 1 hr prior to carrageenan challenge and measured after 4 hrs by planter test (reference value: 5.47 +/- 0.84 sec); format: functional
[8] = Ulcerogenicity in Sprague-Dawley rat assessed as formation of lesions at 30 mg/kg, po after 1 hr by microscopic analysis; format: toxicity, organism-based; details: in vivo
Rattus norvegicus [9] = assay: Antiinflammatory activity in Wistar albino rat assessed as reduction in carrageenan-induced paw edema at 25 mg/kg, ip measured after 1 hr by plethysmometric method (reference value: 1.43 +/- 0.19 ml); format: functional
Rattus norvegicus [10] = assay: Analgesic activity in Wistar albino rat assessed as reaction time at 12.5 mg/kg, ip measured after 180 mins for 15 secs by hot plate method (reference value: 3.87 +/- 0.38 sec); format: functional
Rattus norvegicus [11] = assay: Antiinflammatory activity in Sprague-Dawley rat model of carrageenan-induced thermal hyperalgesia assessed as paw withdrawal latency pressure at 50 mg/kg, po administered 1 hr prior to carrageenan challenge and measured after 1 hr by Von-frey test (reference value: 159.88 +/- 4.66 g); format: functional
Rattus norvegicus [12] = assay: Antiinflammatory activity in Sprague-Dawley rat model of carrageenan-induced thermal hyperalgesia assessed as paw withdrawal latency pressure at 50 mg/kg, po administered 1 hr prior to carrageenan challenge and measured after 3 hrs by Randall-Selitto test (reference value: 176.84 +/- 8.1 g); format: functional
Rattus norvegicus [13] = assay: Antiinflammatory activity in Sprague-Dawley rat model of carrageenan-induced thermal hyperalgesia assessed as paw withdrawal latency pressure at 30 mg/kg, po administered 1 hr prior to carrageenan challenge and measured after 4 hrs by Randall-Selitto test (reference value: 200.08 +/- 10.22 g); format: functional
Rattus norvegicus [14] = assay: Antiinflammatory activity in Sprague-Dawley rat model of carrageenan-induced thermal hyperalgesia assessed as paw withdrawal latency pressure at 30 mg/kg, po administered 1 hr prior to carrageenan challenge and measured after 1 hr by Von-frey test (reference value: 159.88 +/- 4.66 g); format: functional
Rattus norvegicus [15] = assay: Antiinflammatory activity in Sprague-Dawley rat model of carrageenan-induced thermal hyperalgesia assessed as paw withdrawal latency time at 50 mg/kg, po administered 1 hr prior to carrageenan challenge and measured after 5 hrs by planter test (reference value: 7.5 +/- 0.74 sec); format: functional
[16] = target: Prostaglandin G/H synthase 2 (Homo sapiens) (UniProt P35354); assay: Inhibition of recombinant human COX2 assessed as reduction in PGF2alpha at 10 uM incubated for 2 mins using arachidonic acid as substrate by ELISA relative to control
Rattus norvegicus [17] = assay: Antiinflammatory activity in Sprague-Dawley rat model of carrageenan-induced thermal hyperalgesia assessed as paw withdrawal latency time at 30 mg/kg, po administered 1 hr prior to carrageenan challenge and measured after 3 hrs by planter test (reference value: 4.13 +/- 0.45 sec); format: functional
[18] = Antioxidant activity assessed as DPPH radical scavenging activity at 40 uM/ml incubated for 20 mins by spectrophotometric method relative to control; format: functional
[19] = Cardiotoxicity in Sprague-Dawley rat assessed as DBP rate at 50 mg/kg; format: toxicity, organism-based; details: in vivo
Rattus norvegicus [20] = assay: Antiinflammatory activity in Sprague-Dawley rat model of carrageenan-induced thermal hyperalgesia assessed as paw withdrawal latency time at 30 mg/kg, po administered 1 hr prior to carrageenan challenge and measured after 2 hrs by planter test (reference value: 6.17 +/- 0.58 sec); format: functional
[21] = Antioxidant activity assessed as DPPH radical scavenging activity at 60 uM/ml incubated for 20 mins by spectrophotometric method relative to control; format: functional
Rattus norvegicus [22] = assay: Antiinflammatory activity in Wistar albino rat assessed as reduction in carrageenan-induced paw volume at 12.5 mg/kg, ip measured after 1 hr by plethysmometric method (reference value: 1.43 +/- 0.19 ml); format: functional
Rattus norvegicus [23] = assay: Antiinflammatory activity in Sprague-Dawley rat model of carrageenan-induced thermal hyperalgesia assessed as paw withdrawal latency time at 50 mg/kg, po administered 1 hr prior to carrageenan challenge and measured after 1 hr by planter test (reference value: 8.88 +/- 0.52 sec); format: functional
Rattus norvegicus [24] = assay: Antiinflammatory activity in Sprague-Dawley rat model of carrageenan-induced thermal hyperalgesia assessed as paw withdrawal latency pressure at 30 mg/kg, po administered 1 hr prior to carrageenan challenge and measured after 2 hrs by Randall-Selitto test (reference value: 231.13 +/- 3.15 g); format: functional
Rattus norvegicus [25] = assay: Antiinflammatory activity in Wistar albino rat assessed as reduction in carrageenan-induced paw edema at 25 mg/kg, ip measured after 3 hrs by plethysmometric method (reference value: 1.75 +/- 0.33 ml); format: functional
Rattus norvegicus [26] = assay: Antiinflammatory activity in Sprague-Dawley rat model of carrageenan-induced thermal hyperalgesia assessed as paw withdrawal latency time at 30 mg/kg, po administered 1 hr prior to carrageenan challenge and measured after 5 hrs by planter test (reference value: 7.5 +/- 0.74 sec); format: functional
Rattus norvegicus [27] = assay: Antiinflammatory activity in Sprague-Dawley rat model of carrageenan-induced thermal hyperalgesia assessed as paw withdrawal latency pressure at 30 mg/kg, po administered 1 hr prior to carrageenan challenge and measured after 4 hrs by Von-frey test (reference value: 146.61 +/- 1.58 g); format: functional
Rattus norvegicus [28] = assay: Antiinflammatory activity in Sprague-Dawley rat model of carrageenan-induced thermal hyperalgesia assessed as paw withdrawal latency time at 50 mg/kg, po administered 1 hr prior to carrageenan challenge and measured after 2 hrs by planter test (reference value: 6.17 +/- 0.58 sec); format: functional
[29] = Antioxidant activity assessed as DPPH radical scavenging activity at 10 uM/ml incubated for 20 mins by spectrophotometric method relative to control; format: functional
Rattus norvegicus [30] = assay: Antiinflammatory activity in Sprague-Dawley rat model of carrageenan-induced thermal hyperalgesia assessed as paw withdrawal latency pressure at 50 mg/kg, po administered 1 hr prior to carrageenan challenge and measured after 3 hrs by Von-frey test (reference value: 31.65 +/- 3.33 g); format: functional

Work on `CC(=O)N(C1=CC(=O)CCC1)c1ccc(Cl)cc1` yielded a Time (Rattus norvegicus [1]) of 6.16 s, an IC50 [2] of 48 µM and a Ratio IC50 [3] of 109. For the same compound, the Activity [4] was “Non-Toxic”, the Time (Rattus norvegicus [5]) was 6.85 s and the inhibition [6] was 10.8%. For the same compound, the Time (Rattus norvegicus [7]) was 9.58 s, the Activity [8] was “Non-Toxic” and the Activity (Rattus norvegicus [9]) was 1.25 mL. For the same compound, the Time (Rattus norvegicus [10]) was 8.22 s, the Activity (Rattus norvegicus [11]) was 170 g and the Activity (Rattus norvegicus [12]) was 263.26 g. It also gave an Activity (Rattus norvegicus [13]) of 258.94 g, an Activity (Rattus norvegicus [14]) of 166.7 g and a Time (Rattus norvegicus [15]) of 9.3 s. For the same compound, the inhibition [16] was 96.9%, the Time (Rattus norvegicus [17]) was 6.95 s and the Activity [18] was 48%. The Activity [19] was “Non-Toxic”, the Time (Rattus norvegicus [20]) was 8.01 s and the Activity [21] was 65.3%. It also gave an Activity (Rattus norvegicus [22]) of 1.3 mL, a Time (Rattus norvegicus [23]) of 12.25 s and an Activity (Rattus norvegicus [24]) of 262.26 g. The Activity (Rattus norvegicus [25]) was 1.11 mL, the Time (Rattus norvegicus [26]) was 6.37 s and the Activity (Rattus norvegicus [27]) was 159.47 g. The Time (Rattus norvegicus [28]) was 9.67 s, the Activity [29] was 6.18% and the Activity (Rattus norvegicus [30]) was 166.86 g.

Reference: ChEMBL document CHEMBL4359901, “Cyclic enaminone as new chemotype for selective cyclooxygenase-2 inhibitory, anti-inflammatory, and analgesic activities” (Eur J Med Chem, 2019)
